Measurements taken from patent publication US10709735B2, “Immunotherapy against neuronal and brain tumors” (IMMATICS BIOTECHNOLOGIES GMBH, priority 2007, dated 2020).

Test system: CD8+ T cells
Assay: In vitro immunogenicity: priming of CD8+ T cells with peptide-MHC/anti-CD28 coated beads (aAPC), tetramer readout
Format: cell-based, human
Details: CD8+ T cells of healthy HLA-A*02+ donors, three stimulation cycles with high density beads; positive well: at least 1% specific tetramer+ among CD8+ T cells and at least 10x median of negative controls
Experimental: To perform in vitro stimulations by artificial antigen presenting cells (aAPC) loaded with peptide-MHC complex (pMHC) and anti-CD28 antibody, PBMCs (peripheral blood mononuclear cells) were isolated from fresh HLA-A*02+ buffy coats by using standard density gradient separation medium (PAA, Cölbe, Germany). Buffy coats were obtained from the Katharinenhospital Stuttgart. Isolated PBMCs were incubated overnight in T-cell medium (TCM) for human in vitro priming consisting of RPMI-Glutamax (Invitrogen, Karlsruhe, Germany) supplemented with 10% heat inactivated human AB serum (PAA, Cölbe, Germany), 100 U/ml Penicillin/100 μg/ml Streptomycin (Cambrex, Verviers, Belgium), 1 mM sodium pyruvate (CC Pro, Neustadt, Germany) and 20 μg/ml Gentamycin (Cambrex). CD8+ lymphocytes were isolated using the CD8+ MACS positive selection kit (Miltenyi, Bergisch Gladbach, Germany) according to the manufacturer's instructions. Obtained CD8+ T cells were incubated until use in TCM supplemented with 2.5 ng/ml IL-7 (PromoCell, Heidelberg, Germany) and 10 U/ml IL-2 (Chiron, Munich, Germany). Generation of pMHC/anti-CD28 coated beads, T-cell stimulations and readout was performed as described before (Walter et al., 2003) with minor modifications. Briefly, biotinylated recombinant HLA-A*0201 molecules lacking the transmembrane domain and biotinylated at the carboxy terminus of the heavy chain were produced following a method described by Altman et al., 1996). The purified costimulatory mouse IgG2a anti human CD28 Ab 9.3 (Jung et al., 1987) was chemically biotinylated using Sulfo-N-hydroxysuccinimidobiotin as recommended by the manufacturer (Perbio, Bonn, Germany). 5.60 μm large streptavidin coated polystyrene particles beads were used (Bangs Laboratories, Illinois/USA). pMHC was used as positive and negative controls were A*0201/MLA-001 (peptide […] from modified Melan-A/MART-1) and A*0201/DDX5-001 ([…] from DDX5), respectively.
800,000 beads/200 μl were coated in 96-well plates in the presence of 600 ng biotin anti-CD28 plus 200 ng relevant biotin-pMHC (high density beads) or 2 ng relevant plus 200 ng irrelevant (pMHC library) MHC (low density beads). Stimulations were initiated in 96-well plates by conincubating 1×10^6 CD8+ T cells with 2×10^5 washed coated beads in 200 μl TCM supplemented with 5 ng/ml IL-12 (PromoCell) for 3-4 days at 37° C. Half of the medium was then exchanged by fresh TCM supplemented with 80 U/ml IL-2 and incubating was continued for 3-4 days at 37° C. This stimulation cycle was performed for a total of three times. Finally, tetrameric analyses were performed with fluorescent MHC tetramers (produced as described by (Altman et al., 1996)) plus antibody CD8-FITC clone SK1 (BD, Heidelberg, Germany) on a FACSCalibur or a LSR II flow cytometer (BD). Peptide specific cells were calculated as percentage of total CD8+ T cells. Evaluation of tetrameric analysis was performed using the software FCS Express (De Novo Software). In vitro priming of specific tetramer+ CD8+ lymphocytes was detected by appropriate gating and by comparing to negative control stimulations.
Results shown have been obtained by stimulation of CD8+ cells with high density beads. As different human serum lots may highly affect the immunogenicity results, only assays in which one and the same serum lot was used, were evaluated together.

Sequence	Immunogenicity detected
KVFAGIPTV (listed as Homo sapiens) [PTP-005, PTPRZ1-derived tumor associated peptide, HLA A*02]	Yes
ALTTLMHQL (listed as Homo sapiens) [PTP-001, PTPRZ1-derived tumor associated peptide, HLA A*0205]	Yes
FLYKVILSL (listed as Homo sapiens) [PTP-002, PTPRZ1-derived tumor associated peptide, HLA A*02]	Yes
SLWAGVVVL (listed as Homo sapiens) [CHI-001, CHI3L2-derived tumor associated peptide, HLA A*02]	Yes
FLLPDTDGL (listed as Homo sapiens) [PTP-004, PTPRZ1-derived tumor associated peptide, HLA A*02]	Yes
AIIDGVESV (listed as Homo sapiens) [PTP-003, PTPRZ1-derived tumor associated peptide, HLA A*02]	Yes
